From patent US7332615B2, “Hydrophilic analogs of 4,8-dihydrobenzodithiophene-4,8-diones as anticancer agents” (Industrial Technology Research Institute, priority 2004, dated 2008)
Structures can show the parent of a compound that is named as a salt. Where two headings read alike, the source gives them in different places. One block for each compound: values may come before it.

Columns and labels:
[1] = test system: p-gp-expressing epidermoid carcinoma of the nasopharynx (KB-VIN); test: Cytotoxicity Assays Method C, KB-VIN; format: cell-based; settings: Homo sapiens, KBVIN, 72 h, 50% reduction in cell number after 72 hr of incubation
Excerpt: Cytotoxicity Assays Method C (KB, KB-VIN, AS49, HCT-8, PC-3) [K. H. Lee et. al. Planta Med. 54, 308-312 (1998), Monk A et. al. J. Natl. Cancer Inst. 83, 757-766 (1991).] The cell lines included epidermoid caninoma of the nasopharynx (KB), p-gp-expressing epidermoid caninoma of the nasopharynx (KB-VIN), lung carcinoma (A-549), ileocecal carinoma (HCT-8) and prostate cancer (PC-3) cell lines.

[2] = test system: epidermoid carcinoma of the nasopharynx (KB); test: Cytotoxicity Assays Method C, KB; format: cell-based; settings: 72 h, read-out: IC50 KB
MCF-7 = test: Cytotoxicity Assays Method A (alamarBlue anti-proliferative assay), MCF-7; format: cell-based
Excerpt: (§1) Cytotoxicity Assays Method A (HUVEC, MCF-7, HT-29, Hep 3B and NCl-H460) [S. A. Ahmed, R. M. Gogal Jr., and J. E. Walsh, Journal of Immunological Methods 170: 211-224, (1994): M. R. Boyd, Status of the NCl preclinical antitumor drug discovery screen. (Published by J. B. Lippincoft Company, Philadelphia, Pa. 19105, USA) Principles & Practices of Oncology Updates 3 # 10: 1-12, (1989); M. R. Boyd, et al. Data display and analysis strategies for the NCl disease-oriented in vitro antitumor drug screen. In: Cytotoxic anti-cancer drugs: models and concepts for drug discovery and development. Boston: Kluwer Academic, Pages; 11-34, (1992)]
(§2) The test compounds were dissolved in 100% DMSO and then diluted with sterile distilled water to obtain initial working solutions of 20000, 2000, 200, 20 and 2 μM in 80% DMSO. A 200 fold dilution was further made in culture media to generate final assay concentrations of 100, 10, 1, 0.1 and 0.01 μM in 0.4% DMSO.
(§3) Aliquots of 100 μl of cell suspension (about 1.5-3.0×10^3/well) were placed in 96-well microtiter plates in an atmosphere of 5% CO2 at 37° C. After 24 hours, 100 μl of growth medium and 1 μl of test solution or vehicle (80% DMSO) were added respectively per well in duplicate for an additional 72-hour incubation. Thus, the final concentration of DMSO was 0.4%. The test compounds, IIa-1, IIb-1 and VII-1 were evaluated at concentrations of 100, 10, 1, 0.1 and 0.01 μM. At the end of incubation, 20 μl of alamarBlue 90% reagent was added to each well for another 6-hour incubation before detection of cell viability by fluorescent intensity. Fluorescent intensity was measured using a Spectraflour Plus plate reader with excitation at 530 nm and emission at 590 nm.
(§4) The measured results was calculated by the following formula: PG(%)=100×(Mean Ftest−Mean Ftime0)/(Mean Fctrl−Mean Ftime0)] If(Mean Ftest−Mean Ftime0)<0, then PG(%)=100×(Mean Ftest−Mean Ftime0)/(Mean Ftime0−Mean Fblank) wherein PG represents percent growth;
(§5) A decrease of 50% or more (≧50%) in fluorescent intensity relative to the vehicle-treated control indicates significant cytostatic or cytotoxic activity, and semi-quantitative values for IC50, TGI and LC50 were then determined by nonlinear regression using GraphPad Prism (GraphPad Software, USA).
(§6) IC50 (50% Inhibition Concentration); Test compound concentration where the increase from times in the number or mass of treated cells was only 50% as much as the corresponding increase in the vehicle-control at the end of experiment.
(§7) TGI (Total Growth Inhibition): Test compound concentration where the number or mass of treated cells at the end of experiment was equal to that at time0.
(§8) LC50 (50% Lethal Concentration): Test compound concentration where the number or mass of treated cells at the end of experiment was half that at time.
(§9) The assays were used to detect changes in cell proliferation based on the ability of viable cells to cause alamarBlue to change from its oxidized to a reduced form. With the results obtained from the alamarBlue reaction, cell proliferation can be quantified and metabolic activity of viable cell can be examined.
(§10) The succinate derivatives of compounds IIa-1, IIb-1 and VII-1 were tested for possible effect on the proliferation of four human tumor cell lines ˜MCF-7 (breast), HT-29 (colon), Hep3B (liver), and NCl—H 460 (lung) as well as one human umbilical vein endothelial cell (HUVEC) at assay concentration from 0.01 to 100 μM, through serial 10-fold dilution.

[3] = Cytotoxicity Assays Method A (alamarBlue anti-proliferative assay), HUVEC; format: cell-based; settings: human, HUVEC (human umbilical vein endothelial cells), 72-hour incubation, alamarBlue
Excerpt: as §1, §2, §3, §4, §5, §6, §7, §8, §9, §10

HUVEC = test: as above; format: cell-based
Excerpt: as §1, §2, §3, §4, §5, §6, §7, §8, §9, §10

Hep 3B = test: Cytotoxicity Assays Method A (alamarBlue anti-proliferative assay), Hep 3B; format: cell-based
Excerpt: as §1, §2, §3, §4, §5, §6, §7, §8, §9, §10

HT-29 = test: Cytotoxicity Assays Method A (alamarBlue anti-proliferative assay), HT-29; format: cell-based
Excerpt: as §1, §2, §3, §4, §5, §6, §7, §8, §9, §10

lung carcinoma (A-549) = test: Cytotoxicity Assays Method C, A-549; format: cell-based; settings: Homo sapiens, A549, 72 h, read-out: IC50 A549
[4] = test system: ileocecal carcinoma (HCT-8); test: Cytotoxicity Assays Method C, HCT-8; format: cell-based; settings: Homo sapiens, HCT-8, 72 h, read-out: IC50 HCT-8
[5] = test system: Human promyeloid leukemia HL-60 cells; test: Cytotoxicity Assays Method B (MTT proliferation assay), HL-60; format: cell-based; settings: for IC50: Homo sapiens, read-out: IC50 (concentration at which 50% of the cells are inhibited from growing)
Protocol: Cytotoxicity Assays Method B (HL-60) [H. M. Chen et al. Chin. Pharm. J. 53, 157-167 (2001)]
Human promyeloid leukemia HL-60 cells were obtained from the American Type
Culture Collection (Manassas, Va., USA) and the Culture Collection and Research Center(CCRC) (Tai wan, ROC). Human promyeloid leukemia HL-60 cells were cultured in suspension in RPMI-1640 medium (GIBCO, Grand Is land, USA), containing 10% fetal bovine se rum (GIBCO, Grand Is land, USA), 100 unit/mL penicillin, […] streptomycin and 1% L-glutamine at 37° C. in a humidified atmosphere of 5% CO2 in air. Cells were split every day to maintain the cell numbers between 2−5×10^5/mL. Cell numbers were assessed by the standard procedure of leukocyte counting using a hemocytometer and cell viability was checked by the ability of cells to exclude Trypan blue.
Cellular proliferation was determined by the MTT [3-(4,5-dimethylthiazol-2-yl)-2,5-diphenyltetrazolium bromide] as say. Briefly, […] of MTT (5 mg/mL) was added to each well of 96-well plates containing 1×10^5 cells after treatment with different concentrations of samples for 4 days. The reaction was stopped after 2 h by adding […] of 0.04 N HCl in isopropanol and the OD570 nm was determined by a minicolorimetric reader. Each concentration treatment was performed in triplicate.

NCI-H460 = test: Cytotoxicity Assays Method A (alamarBlue anti-proliferative assay), NCI-H460; format: cell-based
Excerpt: as §1, §2, §3, §4, §5, §6, §7, §8, §9, §10

prostate cancer (PC-3) = test: Cytotoxicity Assays Method C, PC-3; format: cell-based; settings: 72 h, read-out: IC50 PC-3
Water solubility = format: physicochemical; settings: water; in H2O

SMILES: O=C(O)CCC(=O)OCc1cc2c(s1)C(=O)c1sccc1C2=O [IIa-1, Mono-[1-(4,8-dioxo-4,8-dihydrobenzo[1,2-b:5,4-b′]dithiophen-2-yl)-methyl]succinate]
IC50 [1]: 4470 nM | IC50 [2]: 2020 nM | IC50 (MCF-7; Homo sapiens, MCF7, 72 h, read-out: IC50 (50% Inhibition Concentration)): 3.4 µM | CC50 (MCF-7; Homo sapiens, MCF7, MCF-7, 72-hour incubation, alamarBlue, read-out: LC50 (50% Lethal Concentration)): 14 µM | TGI (Total growth Inhibition) (MCF-7; MCF-7, 72-hour incubation, alamarBlue): 6.9 µM | cytotoxicity against MCF-7 (in words) (MCF-7; MCF-7, summary of Table 1): significant activity | LC50 (50% lethal concentration) at 72 h [3]: 34 µM | TGI (Total growth Inhibition) (HUVEC; 72-hour incubation, alamarBlue): 19 µM | IC50 (HUVEC; Homo sapiens, 72 h, read-out: IC50 (50% Inhibition Concentration)): 10 µM | cytotoxicity against Hep3B (in words) (Hep 3B; Hep3B, summary of Table 1): significant activity | TGI (Total growth Inhibition) (Hep 3B; Hep-3B, 72-hour incubation, alamarBlue): 5.1 µM | IC50 (Hep 3B; Homo sapiens, Hep3B, 72 h, read-out: IC50 (50% Inhibition Concentration)): 2800 nM | CC50 (Hep 3B; Homo sapiens, Hep3B, Hep-3B, 72-hour incubation, alamarBlue, read-out: LC50 (50% Lethal Concentration)): 9.2 µM | TGI (Total growth Inhibition) (HT-29; HT-29, 72-hour incubation, alamarBlue): 22 µM | IC50 (HT-29; Homo sapiens, HT-29, 72 h, read-out: IC50 (50% Inhibition Concentration)): 11 µM | LC50 (50% lethal concentration) (HT-29; Homo sapiens, HT-29, 72-hour incubation, alamarBlue): 45 µM | IC50 (lung carcinoma (A-549)): 4030 nM | IC50 [4]: 4030 nM | IC50 ([5]; HL-60, 96 h): 470 nM | IC50 (NCI-H460; Homo sapiens, NCI-H460, 72 h, read-out: IC50 (50% Inhibition Concentration)): 810 nM | CC50 (NCI-H460; Homo sapiens, NCI-H460, 72-hour incubation, alamarBlue, read-out: LC50 (50% Lethal Concentration)): 3.5 µM | TGI (Total growth Inhibition) (NCI-H460; NCI-H460, 72-hour incubation, alamarBlue): 1.7 µM | IC50 (prostate cancer (PC-3)): 1350 nM

solubility (Water solubility): ≥ 4000 µg/mL
SMILES: CN(C)CCNC(=O)c1cc2c(s1)C(=O)c1ccsc1C2=O [XV-2-H3PO4, 4,8-dioxo-4,8-dihydrobenzo[1,2-b;4,5-b′]dithiophene-2-carboxylate-(2-dimethyl-aminoethyl)-amide phosphoric acid salt]
IC50 [1]: 10 nM | IC50 ([2]; KB, 50% reduction in cell number after 72 hr of incubation): 60 nM | IC50 (lung carcinoma (A-549); A549, 50% reduction in cell number after 72 hr of incubation): 10 nM | IC50 ([4]; HCT-8, 50% reduction in cell number after 72 hr of incubation): 10 nM | cytotoxicity against HL-60 (in words) ([5]; HL-60, summary of Table 2): the most potent one | IC50 ([5]; 96 h, HL-60, MTT, treatment for 4 days): 50 nM | IC50 (prostate cancer (PC-3); PC-3, 50% reduction in cell number after 72 hr of incubation): 10 nM
